Data as given in patent publication US20260355330A1, “CELL PENETRATING PEPTIDES AND USES THEREOF” (VECTIOPEP OÜ, priority 2022, published 2026).

Tests used:
CHO-K1 cells = test: Delivery of reporter mRNA with CPPs in cell culture (luciferase luminescence 24 h post-transfection); format: cell-based
Method in brief: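 CHO-K1 cells (10,000/well) transfected in 10% FBS DMEM with 0.1 μg firefly luciferase mRNA complexed with CPP at 3:1 charge ratio (peptide excess). Luminescence read in lysates 24 h later, normalised to BCA total protein (RLU/mg).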

[1] = tested on: liver, spleen, lung, kidney, heart and thymus of Balb/c mice; test: Biodistribution of reporter levels post-transfection of mRNA or pDNA with CPPs in vivo (tissue homogenate)
Description: FIG. 3: Biodistribution of reporter levels post-transfection of mRNA or pDNA with NFs or PFs CPPs in vivo. Reporter gene product levels were evaluated from the whole tissue homogenates collected post mortem. Results are shown as the fold change to mRNA or pDNA treated mice.
The transfection complexes (CPP/mRNA) were formed using 10 μg of mRNA mixed with each peptide at indicated charge ratios (CRs) in MQ water in a final volume of 100 μl. CRs were calculated theoretically and account for both the positive charges of the peptide and negative charges of the nucleic acid. The transfection complexes (CPP/mRNA and CPP/pDNA) were formed using 50 μg of mRNA mixed with each peptide at indicated charge ratios (CRs) in MQ water in a final volume of 168 μl. The complexes were incubated for 30 minutes at room temperature and then mixed with equal volume of 10% glucose (resulting in a final solution of 5% glucose in a total volume of 200 μl for 10 μg dose groups and 336 μl for 50 μg dose groups) and immediately injected intravenously via the tail vein.
The reporter gene (luciferase) expression levels were evaluated from the tissue homogenate post mortem 16-24 h after single injection.
In order to determine to which organs in vivo mRNAs may be delivered to with NickFect or PepFect CPPs, mRNA complexes with NF55, NF71 and PF14 were formed and injected through the tail vein of Balb/c mice (FIG. 3A). The organs were harvested 24 hours after the single injection and reporter signal was measured from whole tissue homogenates. The biodistribution of reporter levels was measured in liver, spleen, lung, kidney, heart and thymus.
In order to compare the biodistribution profiles between harvested organs when using either mRNA or pDNA as cargo, NF424 was used to transfect these 2 types of nucleic acids in vivo (FIG. 3B and Table 4).

[2] = mRNA delivery, i.v. tail vein, 24 h after single injection, FIG. 3: fold change to mRNA or pDNA treated mice

CCCCCCCCCCCCCCCCCC(=O)N[C@@H](C)C(=O)NCC(=O)N[C@@H](Cc1ccc(O)cc1)C(=O)N[C@@H](CC(C)C)C(=O)N[C@@H](CC(C)C)C(=O)NCC(=O)NCCC[C@H](N)C(=O)N[C@H](C(=O)N[C@@H](CC(N)=O)C(=O)N[C@@H](CC(C)C)C(=O)N[C@@H](CCCCN)C(=O)N[C@@H](C)C(=O)N[C@@H](CC(C)C)C(=O)N[C@@H](C)C(=O)N[C@@H](C)C(=O)N[C@@H](CC(C)C)C(=O)N[C@@H](C)C(=O)N[C@@H](CCCCN)C(=O)N[C@@H](C)C(=O)N[C@H](C(=O)N[C@@H](CC(C)C)C(N)=O)[C@@H](C)CC)[C@@H](C)CC [NF55]
Average RLU/mg (reporter levels post-transfection of mRNA) (CHO-K1 cells; firefly luciferase mRNA, 0.1 μg per well, charge ratio 3:1, serum containing media, 24 h, RLU normalised to total protein in lysate): 1 270 000 000 RLU/mg | Efficiency of mRNA transfection/delivery (CHO-K1 cells; in words, FIG. 1 / Table 2, cell culture): the most efficient | Organ distribution of mRNA delivery ([1]; in words, mRNA cargo): much higher than in any other organ | Reporter level, Liver [1, 2]: 284 | Reporter level, Lung [1, 2]: 23 465 | Reporter level, Spleen [1, 2]: 79 879 | Delivery of mRNA to the spleen relative to delivery to the lungs ([1]; mRNA, 24 h after single i.v. injection): 3.5 times
